Holding throughout (test): gRNA knockout efficiency
Series [1] concerns CD2. It counts as cell-based.
Series [2] has as its system CD7. To be noted: used together with TRAC-gRNA1.
Protocol: (§1) For gene editing, 3 μg Cas9 protein and 1.5 μg gRNA were mixed in 20 μl and incubated at 37° C. or room temperature for 15 minutes to form ribonucleoprotein (RNP). Then RNP was transfected into T cells by Lonza 4D Nucleofector®. Gene knockout efficiency was determined by the ratio of the cells expressing the protein as detected by flow cytometry (FACS).
For gene editing, 3 μg Cas9 protein and 1.5 μg gRNA were mixed in 20 μl and incubated at 37° C. or room temperature for 15 minutes to form ribonucleoprotein (RNP). Then RNP was transfected into T cells by Lonza 4D Nucleofector®. Gene knockout efficiency was determined by the ratio of the cells expressing the protein as detected by flow cytometry.
For series [3], the system named is TCR.
Protocol: as §1
First, gRNA sequences targeting the exon of the TCR conserved region were designed at http://crispr.mit.edu, and two gRNA sequences with scores above 80 were selected for higher knockout efficiency. For the gRNA primer, the forward primer comprises a T7 promotor followed by 20 bp of the target sequence, and the reverse primer has 20 bp of the complementary sequence. Plasmids were used as PCR template. After purification, T7-PCR product was further used as the template for MEGAshortscript® T7 kit to obtain RNA. The RNA was purified with a MEGAclear® column and eluted with RNA-free water. Cas9 plasmid was purchased from Addgene.
Meanwhile, the knockout efficiency of the gRNA was analyzed by T7E1, TIDE and flow cytometry.
For gene editing, 3 μg Cas9 protein and 1.5 μg gRNA were mixed in 20 μl and incubated at 37° C. or room temperature for 15 minutes to form ribonucleoprotein (RNP). […] Gene knockout efficiency was determined by the ratio of the cells expressing the protein as detected by flow cytometry.

The values that follow come from US12454564B2, “Compositions and methods for T cell engineering” (Gracell Biotechnologies (Shanghai) Co., Ltd., priority 2018, dated 2025).

“Also recorded” adds a separate entry of the source.

Turning to “CD2 gRNA2: gRNA GTGCCACAAAGACCATCAAG (SEQ ID NO 30) (listed as DNA, chemistry not given here)”, the CD2 knockout efficiency entry in series [1] is “the highest CD2 knockout efficiencies”. For “CD7-gRNA1: gRNA GAGGTCAATGTCTACGGCTC (SEQ ID NO 25) (listed as DNA, chemistry not given here)”, in series [2], the CD7 knockout efficiency entry is “high knockout efficiencies; also recorded: obviously better”. For the substance “CD7-gRNA4: gRNA GGAGCAGGTGATGTTGACGG (SEQ ID NO 28) (listed as DNA, chemistry not given here)”, in series [2], the CD7 knockout efficiency result is reported as “obviously better”.

Consider “TRAC-gRNA2: gRNA TCAGGGTTCTGGATATCTGT (SEQ ID NO 21) (listed as DNA, chemistry not given here)”, for which the “knockout efficiency for TCR” value in series [3] is given as “high knockout efficiencies”.
